Assay results from article PMC11083148, “Structure–Activity Relationship Studies on Highly Functionalized Pyrazole Hydrazones and Amides as Antiproliferative and Antioxidant Agents” (International Journal of Molecular Sciences, 2024).

Tests used:
Format in all cases: cell-based
MALME-3M = assay: NCI screening, Melanoma; conditions: 10 µM
Method: (§1) In addition, 11a and 17 (representative compounds of the acylhydrazone and amide series) were selected by the National Cancer Institute (NCI, Germantown, MD, USA) and tested at a fixed concentration of 10 µM against a panel of fifty-nine different cancer cell lines, including highly metastatic tumors (Table 2).

SK-MEL-2 = assay: NCI screening, Melanoma; conditions: SK-MEL-2, Melanoma; 10 µM
Method: as §1

UACC-62 = assay: NCI screening, Melanoma; conditions: UACC-62, Melanoma; 10 µM
Method: as §1

SK-MEL-5 = assay: NCI screening, Melanoma; conditions: SK-MEL-5, Melanoma; 10 µM
Method: as §1

UACC-257 = assay: NCI screening, Melanoma; conditions: UACC-257, Melanoma; 10 µM
Method: as §1

SK-MEL-28 = assay: NCI screening, Melanoma; conditions: SK-MEL-28, Melanoma; 10 µM
Method: as §1

OVCAR-8 = assay: NCI screening, Ovarian Cancer; conditions: OVCAR-8, Ovarian Cancer; 10 µM
Method: as §1

IGROV1 = assay: NCI screening, Ovarian Cancer; conditions: 10 µM
Method: as §1

OVCAR-5 = assay: NCI screening, Ovarian Cancer; conditions: OVCAR-5, Ovarian Cancer; 10 µM
Method: as §1

NCI/ADR-RES = assay: NCI screening, Ovarian Cancer; conditions: 10 µM
Method: as §1

SK-OV-3 = assay: NCI screening, Ovarian Cancer; conditions: SK-OV-3, Ovarian Cancer; 10 µM
Method: as §1

OVCAR-4 = assay: NCI screening, Ovarian Cancer; conditions: OVCAR-4, Ovarian Cancer; 10 µM
Method: as §1

A549/ATCC = assay: NCI screening, Non-Small Cell Lung Cancer; conditions: 10 µM
Method: as §1

NCI-H322M = assay: NCI screening, Non-Small Cell Lung Cancer; conditions: 10 µM
Method: as §1

NCI-H23 = assay: NCI screening, Non-Small Cell Lung Cancer; conditions: 10 µM
Method: as §1

EKVX = assay: NCI screening, Non-Small Cell Lung Cancer; conditions: 10 µM
Method: as §1

HOP-92 = assay: NCI screening, Non-Small Cell Lung Cancer; conditions: HOP-92, Non-Small Cell Lung Cancer; 10 µM
Method: as §1

NCI-H226 = assay: NCI screening, Non-Small Cell Lung Cancer; conditions: 10 µM
Method: as §1

HOP-62 = assay: NCI screening, Non-Small Cell Lung Cancer; conditions: HOP-62, Non-Small Cell Lung Cancer; 10 µM
Method: as §1

PC-3 = assay: NCI screening, Prostate Cancer; conditions: PC-3, Prostate Cancer; 10 µM
Method: as §1

DU-145 = assay: NCI screening, Prostate Cancer; conditions: DU-145, Prostate Cancer; 10 µM
Method: as §1

SKMEL28 = assay: MTT assay, antiproliferative activity; conditions: Homo sapiens; for Mean growth percentage at 10 µM: SK-MEL-28, 10 µM, 48h
HeLa = assay: MTT assay, antiproliferative activity; conditions: Homo sapiens; for activity at 10 µM: 48h, read-out: Mean Growth Percentage
MCF7 [1] = assay: MTT assay, antiproliferative activity; conditions: Homo sapiens; for mean growth percentage (cell growth remaining vs control) at 10 µM: 48h
SW-620 = assay: NCI screening, Colon Cancer; conditions: SW-620, Colon Cancer; 10 µM
Method: as §1

HT29 = assay: NCI screening, Colon Cancer; conditions: 10 µM
Method: as §1

HCT-116 = assay: NCI screening, Colon Cancer; conditions: HCT-116, Colon Cancer; 10 µM
Method: as §1

HCT-15 = assay: NCI screening, Colon Cancer; conditions: HCT-15, Colon Cancer; 10 µM
Method: as §1

HS 578T = assay: NCI screening, Breast Cancer; conditions: 10 µM
Method: as §1

MCF7 [2] = assay: NCI screening, Breast Cancer; conditions: 10 µM
Method: as §1

SMILES	Growth Percentage (%) (MALME-3M)	Growth Percentage (%) (SK-MEL-2)	Growth Percentage (%) (UACC-62)	Growth Percentage (%) (SK-MEL-5)	Growth Percentage (%) (UACC-257)	Growth Percentage (%) (SK-MEL-28)	Growth Percentage (%) (OVCAR-8)	Growth Percentage (%) (IGROV1)	Growth Percentage (%) (OVCAR-5)	Growth Percentage (%) (NCI/ADR-RES)	Growth Percentage (%) (SK-OV-3)	Growth Percentage (%) (OVCAR-4)	Growth Percentage (%) (A549/ATCC)	Growth Percentage (%) (NCI-H322M)	Growth Percentage (%) (NCI-H23)	Growth Percentage (%) (EKVX)	Growth Percentage (%) (HOP-92)	Growth Percentage (%) (NCI-H226)	Growth Percentage (%) (HOP-62)	Growth Percentage (%) (PC-3)	further results
COc1ccc(/C=N/NC(=O)c2c(N)nn(C)c2Nc2ccccc2)cc1 [11a, (E)-3-amino-N′-(4-methoxybenzylidene)-1-methyl-5-(phenylamino)-1H-pyrazole-4-carbohydrazide]	44.75	70.70	23.72	57.21	56.35	57.48	70.80	39.64	76.88	32.98	49.64	87.03	57.09	89.96	66.86	69.71	46.79	51.61	38.79	55.90	Growth Percentage (%) (DU-145): 76.34%; Mean growth percentage at 10 µM (SKMEL28): 49.4%; IC50 (SKMEL28; SK-MEL-28, MTT): 9.45 ± 0.66 µM; activity at 10 µM (HeLa): 25%; IC50 (HeLa; MTT): 4.63 ± 0.41 µM; mean growth percentage (cell growth remaining vs control) at 10 µM (MCF7 [1]): 33.6%; IC50 (MCF7 [1]; MTT): 6.9 ± 0.34 µM
CCOC(=O)c1c(NC(=O)C2CC2)nn(C)c1Nc1ccccc1 [compound 17, Ethyl 3-(cyclopropanecarboxamido)-1-methyl-5-(phenylamino)-1H-pyrazole-4-carboxylate]	98.67	100.69	93.55	99.45	99.58	107.16	101.92	100.75	99.49	103.29	99.73	99.35	101.59	94.41	98.44	96.82	81.47	98.86	110.36	95.84	Growth Percentage (%) (SW-620): 94.82%; Growth Percentage (%) (HT29): 99.47%; Growth Percentage (%) (HCT-116): 104.12%; Growth Percentage (%) (HCT-15): 96.95%; Growth Percentage (%) (DU-145): 104.67%; Mean growth percentage at 10 µM (SKMEL28): 85.9%; activity at 10 µM (HeLa): 109%; mean growth percentage (cell growth remaining vs control) at 10 µM (MCF7 [1]): 92.8%; Growth Percentage (%) (HS 578T): 96.86%; Growth Percentage (%) (MCF7 [2]): 92.37%
